# Results from US6737383B1, “Herbicidal oxadiazolidines” (priority 1999, dated 2004).
# Tests used:
# [1] = system: wild oat; test: Test B pre/postemergence wild oat; assay type: in vivo, Avena fatua
# Method in brief: (§1)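 Response is a visual 0-to-10 score relative to untreated plants, where 0 means no effect and 10 means complete control, taken twelve to sixteen days after application. Treatments went onto soil at planting and onto foliage of 1- to 4-leaf plants, using a surfactant-containing non-phytotoxic solvent.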
# [2] = system: rape; test: Test B pre/postemergence rape; assay type: in vivo, Brassica napus
# Method in brief: as §1
# [3] = system: morningglory; test: Test B pre/postemergence morningglory; assay type: in vivo, Ipomoea hederacea
# Method in brief: as §1
# [4] = system: duck salad; test: Test B flood test duck salad; assay type: in vivo, Heteranthera limosa
# Method in brief: (§2)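 Flood test on plants grown to the 2-leaf stage; treated plants kept in greenhouse twelve to sixteen days, then visually rated against controls on a 0 (no effect) to 10 (complete control) scale.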
# [5] = system: sugar beet; test: Test B pre/postemergence sugar beet; assay type: in vivo, Beta vulgaris
# Method in brief: as §1
# [6] = system: bedstraw; test: Test B pre/postemergence bedstraw; assay type: in vivo, Galium aparine; details: Postemergence
# Method in brief: as §1
# [7] = system: giant foxtail; test: Test B pre/postemergence giant foxtail; assay type: in vivo, Setaria faberii
# Method in brief: as §1
# [8] = system: blackgrass; test: Test B pre/postemergence blackgrass; assay type: in vivo, Alopecurus myosuroides
# Method in brief: as §1
# [9] = system: surinam grass; test: Test B pre/postemergence surinam grass; assay type: in vivo, Brachiaria decumbens
# Method in brief: as §1
# [10] = system: rice; test: Test B flood test rice; assay type: in vivo, Oryza sativa
# Method in brief: as §2
# [11] = system: cocklebur; test: Test B pre/postemergence cocklebur; assay type: in vivo, Xanthium strumarium
# Method in brief: as §1
# [12] = system: wheat; test: Test B pre/postemergence wheat; assay type: in vivo, Triticum aestivum
# Method in brief: as §1
# [13] = system: crabgrass; test: Test B pre/postemergence crabgrass; assay type: in vivo, Digitaria sanguinalis
# Method in brief: as §1
# [14] = system: soybean; test: Test B pre/postemergence soybean; assay type: in vivo, Glycine max
# Method in brief: as §1
# [15] = system: bamyardgrass; test: Test B flood test barnyardgrass; assay type: in vivo, Echinochloa crus-galli
# Method in brief: as §2
# [16] = system: corn; test: Test B pre/postemergence corn; assay type: in vivo, Zea mays
# Method in brief: as §1
# [17] = system: smallflower flatsedge; test: Test B flood test smallflower flatsedge; assay type: in vivo, Cyperus difformis
# Method in brief: as §2
# [18] = system: purple nutsedge; test: Test B pre/postemergence purple nutsedge; assay type: in vivo, Cyperus rotundus
# Method in brief: as §1
# [19] = system: velvetleaf; test: Test B pre/postemergence velvetleaf; assay type: in vivo, Abutilon theophrasti
# Method in brief: as §1
# [20] = system: pigweed; test: Test B pre/postemergence pigweed; assay type: in vivo, Amaranthus retroflexus
# Method in brief: as §1
# [21] = Postemergence, Rate 125 g/ha, scale 0 to 10, 0 is no effect, 10 is complete control
# [22] = Postemergence, Rate 500 g/ha, scale 0 to 10, 0 is no effect, 10 is complete control
# [23] = Preemergence, Rate 62 g/ha, scale of 0 to 10 where 0 is no effect and 10 is complete control
# [24] = Preemergence, Rate 125 g/ha, scale 0 to 10, 0 is no effect, 10 is complete control
# [25] = Preemergence, Rate 500 g/ha, scale 0 to 10, 0 is no effect, 10 is complete control
# [26] = Rate 62 g/ha, Postemergence, scale 0 to 10, 0 no effect, 10 complete control
# [27] = Rate 62 g/ha, flood test species, Pre-emergence, visual evaluation after twelve to sixteen days
# [28] = Rate 125 g/ha, under heading Pre-emergence, flood test species, visual evaluation after twelve to sixteen days
# [29] = Rate 250 g/ha, Pre-emergence (flood test species), scale 0 to 10, 0 is no effect, 10 is complete control
# [30] = Rate 500 g/ha, Pre-emergence section of Table B, 0 to 10 scale (0 no effect, 10 complete control)
# [31] = Postemergence, Rate 250 g/ha, scale 0 to 10
# [32] = Preemergence, Rate 250 g/ha, scale 0 to 10, 0 is no effect, 10 is complete control
smiles,measurement,setting,value
CC(C)N(C(=O)n1oc(=O)n(CC(=O)C2CC2)c1=O)c1ccc(F)cc1 [Compound 488],Wild oats plant response rating,[1]; [21],0
same,"Plant response rating, Wild oats",[1]; [22],5
same,"Plant response rating, Wild oats",[1]; [23],3
same,Wild oats plant response rating,[1]; [24],8
same,Wild oats plant response rating,[1]; [25],10
same,Wild oats plant response rating,[1]; [26],0
same,Rape plant response rating,[2]; [21],0
same,"Plant response rating, Rape",[2]; [22],0
same,"Plant response rating, Rape",[2]; [23],1
same,Rape plant response rating,[2]; [24],7
same,Rape plant response rating,[2]; [25],10
same,Rape plant response rating,[2]; [26],0
same,Morningglory plant response rating,[3]; [21],2
same,"Plant response rating, Morningglory",[3]; [22],8
same,"Plant response rating, Morningglory",[3]; [23],0
same,Morningglory plant response rating,[3]; [24],0
same,Morningglory plant response rating,[3]; [25],0
same,Morningglory plant response rating,[3]; [26],1
same,"Plant response rating, Ducksalad (0 to 10 scale, 0 is no effect, 10 is complete control)",[4]; [27],0
same,"Ducksalad plant response rating (0 to 10 scale, 0 is no effect, 10 is complete control)",[4]; [28],0
same,Ducksalad plant response rating,[4]; [29],0
same,Ducksalad plant response rating,[4]; [30],0
same,Sugarbeets plant response rating,[5]; [21],0
same,"Plant response rating, Sugarbeets",[5]; [22],1
same,"Plant response rating, Sugarbeets",[5]; [23],0
same,Sugarbeets plant response rating,[5]; [24],4
same,Sugarbeets plant response rating,[5]; [25],7
same,Sugarbeets plant response rating,[5]; [26],0
same,Bedstraw plant response rating,"[6]; Rate 125 g/ha, scale 0 to 10, 0 is no effect, 10 is complete control",2
same,Bedstraw plant response rating,"[6]; Rate 250 g/ha, scale 0 to 10",4
same,"Plant response rating, Bedstraw","[6]; Rate 500 g/ha, scale 0 to 10, 0 is no effect, 10 is complete control",9
same,Bedstraw plant response rating,"[6]; Rate 62 g/ha, scale 0 to 10, 0 no effect, 10 complete control",0
same,Giant foxtail plant response rating,[7]; [21],8
same,"Plant response rating, Giant foxtail",[7]; [22],9
same,"Plant response rating, Giant foxtail",[7]; [23],9
same,Giant foxtail plant response rating,[7]; [24],10
same,Giant foxtail plant response rating,[7]; [25],10
same,Giant foxtail plant response rating,[7]; [26],5
same,Blackgrass plant response rating,[8]; [21],8
same,Blackgrass plant response rating,[8]; [31],8
same,"Plant response rating, Blackgrass",[8]; [22],8
same,"Plant response rating, Blackgrass",[8]; [23],5
same,Blackgrass plant response rating,[8]; [24],8
same,Blackgrass plant response rating,[8]; [32],8
same,Blackgrass plant response rating,[8]; [25],10
same,Blackgrass plant response rating,[8]; [26],1
same,B. signalgrass plant response rating,[9]; [21],4
same,B. signalgrass plant response rating,"[9]; Postemergence, Rate 250 g/ha, scale 0 to 10, 0 no effect, 10 complete control",6
same,"Plant response rating, B. signalgrass",[9]; [22],7
same,"Plant response rating, B. signalgrass",[9]; [23],4
same,B. signalgrass plant response rating,[9]; [24],7
same,B. signalgrass plant response rating,[9]; [32],7
same,B. signalgrass plant response rating,[9]; [25],10
same,B. signalgrass plant response rating,[9]; [26],0
same,"Plant response rating, Rice (0 to 10 scale, 0 is no effect, 10 is complete control)",[10]; [27],0
same,"Rice plant response rating (0 to 10 scale, 0 is no effect, 10 is complete control)",[10]; [28],0
same,Rice plant response rating,[10]; [29],0
same,Rice plant response rating,[10]; [30],0
same,Cocklebur plant response rating,[11]; [21],0
same,Cocklebur plant response rating,[11]; [31],0
same,"Plant response rating, Cocklebur",[11]; [22],0
same,"Plant response rating, Cocklebur",[11]; [23],0
same,Cocklebur plant response rating,[11]; [24],0
same,Cocklebur plant response rating,[11]; [32],0
same,Cocklebur plant response rating,[11]; [25],0
same,Cocklebur plant response rating,[11]; [26],0
same,Wheat plant response rating,[12]; [21],0
same,"Plant response rating, Wheat",[12]; [22],3
same,"Plant response rating, Wheat",[12]; [23],0
same,Wheat plant response rating,[12]; [24],0
same,Wheat plant response rating,[12]; [25],5
same,Wheat plant response rating,[12]; [26],0
same,Crabgrass plant response rating,[13]; [21],7
same,Crabgrass plant response rating,[13]; [31],8
same,"Plant response rating, Crabgrass",[13]; [22],9
same,"Plant response rating, Crabgrass",[13]; [23],8
same,Crabgrass plant response rating,[13]; [24],10
same,Crabgrass plant response rating,[13]; [25],10
same,Soybean plant response rating,[14]; [21],4
same,"Plant response rating, Soybean",[14]; [22],5
same,"Plant response rating, Soybean",[14]; [23],0
same,Soybean plant response rating,[14]; [24],0
same,Soybean plant response rating,[14]; [25],1
same,Soybean plant response rating,[14]; [26],4
same,"Plant response rating, Barnyardgrass (0 to 10 scale, 0 is no effect, 10 is complete control)",[15]; [27],0
same,"Barnyardgrass plant response rating (0 to 10 scale, 0 is no effect, 10 is complete control)",[15]; [28],0
same,Barnyardgrass plant response rating,[15]; [29],0
same,Barnyardgrass plant response rating,[15]; [30],0
same,Corn plant response rating,[16]; [21],0
same,Corn plant response rating,[16]; [31],0
same,"Plant response rating, Corn",[16]; [22],0
same,"Plant response rating, Corn",[16]; [23],0
same,Corn plant response rating,[16]; [24],0
same,Corn plant response rating,[16]; [25],6
same,Corn plant response rating,[16]; [26],0
same,"Plant response rating, S. Flatsedge (0 to 10 scale, 0 is no effect, 10 is complete control)",[17]; [27],0
same,"S. Flatsedge plant response rating (0 to 10 scale, 0 is no effect, 10 is complete control)",[17]; [28],0
same,S. Flatsedge plant response rating,[17]; [29],0
same,S. Flatsedge plant response rating,[17]; [30],0
same,Nutsedge plant response rating,[18]; [21],0
same,"Plant response rating, Nutsedge",[18]; [22],2
same,"Plant response rating, Nutsedge",[18]; [23],0
same,Nutsedge plant response rating,[18]; [24],0
same,Nutsedge plant response rating,[18]; [25],0
same,Nutsedge plant response rating,[18]; [26],0
same,Velvetleaf plant response rating,[19]; [21],0
same,"Plant response rating, Velvetleaf",[19]; [22],1
same,"Plant response rating, Velvetleaf",[19]; [23],0
same,Velvetleaf plant response rating,[19]; [24],2
same,Velvetleaf plant response rating,[19]; [25],6
same,Velvetleaf plant response rating,[19]; [26],0
same,Redroot pigweed plant response rating,[20]; [21],0
same,"Plant response rating, Redroot pigweed",[20]; [22],2
same,"Plant response rating, Redroot pigweed",[20]; [23],4
same,Redroot pigweed plant response rating,[20]; [24],10
same,Redroot pigweed plant response rating,[20]; [25],10
same,Redroot pigweed plant response rating,[20]; [26],0
